Measured values from US20070135403A1, “Substituted 2,5-diaminomethyl-1H-pyrrole compounds” (Gruenenthal GmbH, priority 2004, published 2007).
Structures can show the parent of a compound that is named as a salt.

Tests used:
[1] = target: T1, 5-HT transporter (5-HT uptake) (Rattus norvegicus, UniProt P31652); test: 5-HT uptake inhibition in rat brain synaptosomes (medulla and pons); type: biochemical; conditions: % inhibition
T1 construct: from tissue; host or cells: rat brain synaptosomes (P2 fraction) from medulla and pons
T1 sequence (P31652 whole entry): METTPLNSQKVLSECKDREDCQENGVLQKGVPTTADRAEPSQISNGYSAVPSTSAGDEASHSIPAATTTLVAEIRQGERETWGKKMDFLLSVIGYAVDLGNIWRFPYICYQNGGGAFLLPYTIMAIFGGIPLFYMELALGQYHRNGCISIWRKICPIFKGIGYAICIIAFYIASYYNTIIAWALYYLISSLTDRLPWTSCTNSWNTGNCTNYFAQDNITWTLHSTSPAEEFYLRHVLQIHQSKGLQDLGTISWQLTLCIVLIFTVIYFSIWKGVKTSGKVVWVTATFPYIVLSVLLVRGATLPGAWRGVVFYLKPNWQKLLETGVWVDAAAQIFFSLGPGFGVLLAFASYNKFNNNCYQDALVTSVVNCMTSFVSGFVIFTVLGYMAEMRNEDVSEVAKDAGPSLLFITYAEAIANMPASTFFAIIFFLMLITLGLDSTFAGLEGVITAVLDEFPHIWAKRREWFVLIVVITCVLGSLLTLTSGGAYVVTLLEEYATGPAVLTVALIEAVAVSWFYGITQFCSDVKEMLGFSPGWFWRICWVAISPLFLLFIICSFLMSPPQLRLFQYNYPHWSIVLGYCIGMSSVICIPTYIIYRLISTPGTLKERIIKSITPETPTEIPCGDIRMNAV
Text: (§1) b) Method For Determining Noradrenalin and 5-HT Uptake Inhibition
(§2) Synaptosomes from rat brain regions are freshly isolated for in vitro studies, as described in the publication “The isolation of nerve endings from brain” by E. G. Gray and V. P. Whittaker, J. Anatomy 96, pages 79-88, 1962. The corresponding literature description is hereby introduced as a reference and is deemed to be part of the disclosure.
(§3) The tissue (hypothalamus for the determination of noradrenalin uptake inhibition and medulla and pons for the determination of 5-HT uptake inhibition) is homogenised in ice-cooled 0.32 M sucrose (100 mg of tissue/1 ml) in a glass homogeniser with Teflon pestle using five complete up and down strokes at 840 revolutions/minute.
(§4) The homogenate is centrifuged at 4° C. for 10 minutes at 1000 g. After subsequent centrifugation at 17000 g for 55 minutes, the synaptosomes (P2 fraction) are obtained, which are resuspended in 0.32 M glucose (0.5 ml/100 mg of original weight).
(§5) The particular uptake is measured in a 96-well microtitre plate. The volume is 250 μl and the incubation proceeds at room temperature (approx. 20-25° C.) under an O2 atmosphere.
(§6) The incubation time is 7.5 minutes for [^3H]—NA and 5 minutes for [^3H]-5-HT. The 96 samples are then filtered through a Unifilter GF/B® microtitre plate (Packard) and washed with […] of incubated buffer using a “Brabdel MPXRI-96T Cell-Harvester”. The Unifilter GF/B plate is dried for 1 hour at 55° C. The plate is then sealed with a Back seal® (Packard) and 35 μl of scintillation fluid are added per well (Ultima Gold®, Packard). After sealing with a top seal® (Packard) and establishing an equilibrium (around 5 hours), radioactivity is determined in a “Trilux 1450 Microbeta” (Wallac).
(§7) The quantity of protein used in the above determination corresponds to the values known from the literature, as for example described in “Protein measurement with the folin phenol reagent”, Lowry et al., J. Biol. Chem., 193, 265-275, 1951. A detailed description of the method may additionally be found in the literature, for example in M.Ch. Frink, H.-H. Hennies, W. Engelberger, M. Haurand and B. Wilffert (1996) Arzneim.-Forsch./Drug Res. 46 (III), 11, 1029-1036. The disclosures of these two articles are hereby incorporated by reference.
(§8) The following characteristics were determined for the NA or 5-HT transporter: • NA uptake: Km=0.32±0.11 μM • 5HT uptake: Km=0.084±0.011 μM

[2] = target: T2, NA transporter (NA uptake) (Rattus norvegicus, UniProt Q63380); test: Noradrenalin (NA) uptake inhibition in rat brain synaptosomes (hypothalamus); type: biochemical; conditions: 10 μM inhibition
T2 construct: from tissue; host or cells: rat brain synaptosomes (P2 fraction) from hypothalamus
T2 sequence (Q63380 1-617): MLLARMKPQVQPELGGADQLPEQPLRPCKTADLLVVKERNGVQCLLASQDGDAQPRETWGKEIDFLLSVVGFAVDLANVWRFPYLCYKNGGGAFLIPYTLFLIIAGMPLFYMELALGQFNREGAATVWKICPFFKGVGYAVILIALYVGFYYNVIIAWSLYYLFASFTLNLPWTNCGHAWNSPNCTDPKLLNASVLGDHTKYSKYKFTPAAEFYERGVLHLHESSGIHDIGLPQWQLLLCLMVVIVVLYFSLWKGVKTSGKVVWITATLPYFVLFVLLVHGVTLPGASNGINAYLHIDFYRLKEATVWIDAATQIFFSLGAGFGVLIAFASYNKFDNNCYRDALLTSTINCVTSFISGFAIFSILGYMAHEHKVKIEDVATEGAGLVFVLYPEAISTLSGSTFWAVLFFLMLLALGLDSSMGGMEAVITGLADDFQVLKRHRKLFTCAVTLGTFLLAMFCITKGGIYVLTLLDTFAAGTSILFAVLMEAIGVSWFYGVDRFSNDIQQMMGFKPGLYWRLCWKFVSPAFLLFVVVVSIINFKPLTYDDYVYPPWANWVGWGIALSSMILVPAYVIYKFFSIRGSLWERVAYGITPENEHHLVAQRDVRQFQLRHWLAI
Text: as §1, §2, §3, §4, §5, §6, §7, §8

“4-[1-Methyl-5-(4-phenyl-piperidin-1-ylmethyl)-1H-pyrrol-2-ylmethyl]-morpholine [Example 3]” showed a 5HT uptake inhibition ([1]; 10 μM) of 59% and an NA uptake inhibition [2] of 71.

`CCN(CC)Cc1ccc(CN2CCCCC2)n1C` [Example 1, Diethyl-(1-methyl-5-piperidin-1-ylmethyl-1H-pyrrol-2-ylmethyl)-amine dihydrochloride] showed an inhibition at 10 µM [1] of 34%.

`CC1CCN(Cc2ccc(CN3CCCCC3)n2C)CC1` [Example 2, 1-(1-Methyl-5-piperidin-1-ylmethyl-1H-pyrrol-2-ylmethyl)-4-methylpiperidine] gave an inhibition at 10 µM [1] of 72%.

Molecule `Cn1c(CN2CCCCC2)ccc1CN1CCN(c2ccccc2)CC1` [Example 4, 1-(1-Methyl-5-piperidin-1-ylmethyl-1H-pyrrol-2-ylmethyl)-4-phenyl-piperazine] has an inhibition at 10 µM [1] of 48% and an inhibition at 10 µM [2] of 77%.

Molecule `Cn1c(CN2CCCCCC2)ccc1CN1CCC(Cc2ccccc2)CC1` [Example 5, 1-[5-(4-Benzyl-piperidin-1-ylmethyl)-1-methyl-1H-pyrrol-2-ylmethyl]-azepane] has an inhibition at 10 µM [1] of 64% and an inhibition at 10 µM [2] of 100%.

`CN(Cc1ccccc1)Cc1ccc(CN2CCC(Cc3ccccc3)CC2)n1C` [Example 6, Benzyl-[5-(4-benzyl-piperidin-1-ylmethyl)-1-methyl-1H-pyrrol-2-ylmethyl]-methyl-amine] gave an inhibition at 10 µM [1] of 61% and an inhibition at 10 µM [2] of 100%.

For `Cn1c(CN2CCOCC2)ccc1CN1CCC(Cc2ccccc2)CC1` [Example 7, 4-[5-(4-Benzyl-piperidin-1-ylmethyl)-1-methyl-1H-pyrrol-2-ylmethyl]-morpholine], the inhibition at 10 µM [1] was 55% and the inhibition at 10 µM [2] was 100%.

Work on `CN(Cc1ccccc1)Cc1ccc(CN2CCCCCC2)n1C` [Example 8, (5-Azepan-1-ylmethyl-1-methyl-1H-pyrrol-2-ylmethyl)-benzyl-methyl-amine] yielded an inhibition at 10 µM [2] of 62%.

`CC1CCCCN1Cc1ccc(CN(C)Cc2ccccc2)n1C` (stereo not drawn) [Example 9, Benzyl-methyl-[1-methyl-5-(2-methyl-piperidin-1-ylmethyl)-1H-pyrrol-2-ylmethyl]-amine] showed an inhibition at 10 µM [2] of 57%.

“Benzyl-methyl-[1-methyl-5-(4-phenyl-piperidin-1-ylmethyl)-1H-pyrrol-2-ylmethyl]-amine [Example 10]” showed an NA uptake inhibition [2] of 53.
